Results published in patent publication US9902986B2, “Enterobactin conjugates and uses thereof” (Massachusetts Institute of Technology, priority 2013, dated 2018).
Entries after “also recorded” stand apart in the source; their conditions may differ.

Key:
[1] = test system: E. coli UTI89; assay: Competition assay with native siderophores, E. coli UTI89; format: cell-based, Escherichia coli; details: conjugate 100 nM, varied Ent, MGE or DGE, 50% MHB, 200 μM DP, 30° C., t=19 h
Method: Ent was synthesized following a literature procedure^55 and stored as DMSO stock solution at −20° C. MGE and DGE were prepared from Ent using MceC and IroB as described for MGE-PEG3-N3 and DGE-PEG3-N3.
In an exemplary experiment, select conjugates (Ent-Amp, MGE-Amp, and DGE-Amp) with select native siderophores (Ent, MGE, and DGE) were tested against the uropathogenic strain E. coli UTI89 in 50% MHB, t=19 h, 30° C. […] The concentration of the conjugates was fixed at 100 nM, and the concentration of the native siderophores was varied. […] These observations indicate that Ent, MGE, Ent-Amp, and MGE-Amp may enter via both FepA and IroN with different efficiency, but DGE and DGE-Amp may only enter via IroN.
In another exemplary experiment, select conjugates (Ent-Amp, MGE-Amp, and DGE-Amp) with select native siderophores (Ent, MGE, and DGE) were tested against the uropathogenic strain E. coli UTI89 in 50% MHB, t=19 h, 30° C. […] The concentration of the conjugates was fixed at 100 nM and the concentration of the native siderophores was varied. […] These observations indicate that Ent, MGE, Ent-Amp, and MGE-Amp may enter via both FepA and IroN with different efficiency, but DGE and DGE-Amp may only enter via IroN.

[2] = test system: E. coli CFT073; assay: Antimicrobial activity assay in the presence of lipocalin 2; format: cell-based, Escherichia coli; details: conjugate 100 nM, lcn2 1 μM, M9 minimal media, 37° C., 24 h
Method: The bacterial cultures were grown in modified M9 minimal medium (Blango, M. G.; Ott, E. M.; Erman, A.; Veranic, P.; Mulvey, M. A. Forced Resurgence and Targeting of Intracellular Uropathogenic Escherichia coli Reservoirs. PLoS One 2014, 9, e93327-e93335) (Na2HPO4 6.8 g/L, KH2PO4 3 g/L, NaCl 0.5 g/L, NH4Cl 1 g/L, 0.4% glucose, 2 mM MgSO4, 0.1 mM CaCl2, 0.2% casein amino acids, and 16.5 μg/mL of thiamine) overnight. […] The cultures were serially diluted to an OD600 value of 0.00001 in fresh modified M9 minimal medium. Lipocalin 2 (Lcn2) was diluted into PBS buffer to a concentration of 20 μM upon arrival and frozen at −20° C. until use. Bovine serum albumin (BSA, Sigma-Aldrich) was prepared in PBS buffer to achieve a concentration of 20 μM. […] The bacterial growth was determined by measuring OD600 using the plate reader. […] The resulting mean OD600 was reported, and the error bars were the standard deviation. […] In contrast, Lcn2 had no effect of the antibacterial activity of MGE-Amp, MGE-Amx, DGE-Amp, or DGE-Amx.

[3] = test system: E. coli K-12; assay: Antimicrobial activity assay, E. coli K-12; format: cell-based, Escherichia coli; details: inhibition attributed to iron deprivation
Method: (§1) Overnight cultures of the bacterial strains were prepared by inoculating 5 mL of LB with the bacterial freezer stocks and the cultures were incubated at 37° C. in a tabletop incubator shaker set at 150 rpm. The overnight culture grew to saturation and was diluted 1:100 into 5 mL of fresh LB medium containing DP (200 μM) and incubated at 37° C. with shaking at 150 rpm until OD600 reached 0.6. The cultures were subsequently diluted to an OD600 value of 0.001 in 50% MHB medium (11.5 g/L) with or without DP (200 μM). No antibiotic marker was included in these cultures. A 90-μL aliquot of the diluted culture was combined with a 10-μL aliquot of a 10× solution of the tested compounds in a 96-well plate, which was wrapped in […] and incubated at 30° C. with shaking at 150 rpm for 19 h. Bacterial growth was determined by measuring OD600 using a BIOTEK SYNERGY HT plate reader. Each well condition was prepared in duplicate, and at least three independent replicates were conducted on different days. The resulting mean OD600 are reported and the error bars are the standard deviation.
In an exemplary experiment, antibacterial activities of the conjugates were tested against E. coli K-12 in 50% MHB at 30° C., t=19 h. 2,2′-dipyridyl (DP, 200 μM) was added to provide conditions of iron limitation.

[4] = test system: Salmonella enterica serovar Typhimurium (STM) IR715; assay: Antibacterial activity assay, Salmonella Typhimurium; format: cell-based; details: 50% MHB, 100 μM 2,2′-dipyridyl, 30° C., t=19 h
Method: FIGS. 12A and 12B show exemplary antibacterial activities of Ent-Amp, Ent-Amx, MGE-Amp, MGE-Amx, DGE-Amp, and DGE-Amx against Salmonella enterica serovar Typhimurium (STM) IR715 (50% MHB with 100 μM 2,2′-dipyridyl to provide conditions of iron limitation, 30° C., t=19 h). (FIG. 12A) Antibacterial activity of Amp and the Amp-containing conjugates (Ent-Amp, MGE-Amp, and DGE-Amp). […] (FIG. 12B) Antibacterial activity of Amx and the Amx-containing conjugates (Ent-Amx, MGE-Amx, and DGE-Amx).

[5] = test system: various E. coli strains; assay: Antibacterial activity against a panel of E. coli strains; format: cell-based, Escherichia coli; details: 6 strains of E. coli (K-12, B, H9049, 25922, UTI89, CFT073)
Method: as §1
Ampicillin and amoxicillin are β-lactam antibiotics that have periplasmic targets in Gram-negative bacteria and inhibit cell wall biosynthesis. The antibacterial activity of Ent-ampicillin and Ent-amoxicillin conjugates 44 and 45 was evaluated in vitro against a panel of Gram-negative and positive-bacteria.
Select Ent-β-lactam conjugates (Ent-Amp and Ent-Amx) and their glucosylated derivatives (MGE-Amp, MGE-Amx, DGE-Amp, and DGE-Amx) were tested against 6 strains of E. coli. Four of them are non-pathogenic strains, namely K-12, B, H9049, and 25922, and the other two are uropathogenic clinical isolates, namely UTI89 and CFT073.

[6] = test system: E. coli CFT073; assay: Antimicrobial activity assay, E. coli CFT073; format: cell-based, Escherichia coli; details: Fe(III)-loaded versus apo conjugates, 50% MHB, 200 μM DP, 30° C., t=19 h
Method: as §1
In another exemplary experiment, antibacterial activities of the conjugates were tested against E. coli CFT073 in 50% MHB at 30° C., t=19 h. DP (200 μM) was added to provide conditions of iron limitation.
In another exemplary experiment, antibacterial activities of Fe(III)-loaded or apo Ent-β-lactam conjugates (Ent-Amp and Ent-Amx) and their glucosylated derivatives (MGE-Amp, MGE-Amx, DGE-Amp, and DGE-Amx) against the uropathogenic strain E. coli CFT073 were tested in 50% MHB, 30° C., t=19 h. 2,2′-dipyridyl (DP, 200 μM) was added to provide conditions of iron limitation.

[7] = test system: uropathogenic E. coli and non-pathogenic E. coli; assay: Mixed culture assays (summary), uropathogenic and non-pathogenic E. coli; format: cell-based, Escherichia coli; details: uropathogenic with non-pathogenic E. coli
Excerpt: No antibiotic marker was included in these cultures.

[8] = test system: E. coli CFT073; assay: Competition assay with native siderophores, E. coli CFT073; format: cell-based, Escherichia coli; details: conjugate 100 nM, varied Ent, MGE or DGE, 50% MHB, 200 μM DP, 30° C., t=19 h
Method: These assays were performed following the general procedure described herein except that varying concentrations of Ent, MGE, or DGE, each of which was unmodified, were mixed with Ent-Amp, Ent-Amx, MGE-Amp, MGE-Amx, DGE-Amp, or DGE-Amx. Ent was synthesized following a literature procedure^55 and stored as DMSO stock solution at −20° C. MGE and DGE were prepared from Ent using MceC and IroB as described for MGE-PEG3-N3 and DGE-PEG3-N3.
In another exemplary experiment, select conjugates (Ent-Amp, MGE-Amp, and DGE-Amp) with select native siderophores (Ent, MGE, and DGE) were tested against the uropathogenic strain E. coli CFT073 in 50% MHB, t=19 h, 30° C. 2,2′-dipyridyl (DP, 200 μM) was added to provide conditions of iron limitation. The concentration of the conjugates was fixed at 100 nM and the concentration of the native siderophores was varied.
In another exemplary experiment, select conjugates (Ent-Amx, MGE-Amx, and DGE-Amx) with select native siderophores (Ent, MGE, and DGE) were tested against the uropathogenic strain E. coli CFT073 in 50% MHB, t=19 h, 30° C. DP (200 μM) was added to provide conditions of iron limitation. The concentration of the conjugates was fixed at 100 nM and the concentration of the native siderophores was varied.

SMILES | attenuation of antibacterial activity by native siderophores [1] | effect of lipocalin-2 (lcn2) on antibacterial activity [2] | concentrations at which E. coli K-12 was inhibited [3] | antibacterial activity relative to the unmodified antibiotic [4] | antibacterial activity against uropathogenic compared to non-pathogenic E. coli [5] | effect of preloading Fe(III) on antibacterial activity [6] | strain-specific growth inhibition in the mixed culture assays [7] | attenuation of antibacterial activity by native siderophores [8]
CC1(C)SC2C(NC(=O)C(NC(=O)CCCc3cn(CCOCCOCCOCCNC(=O)c4cc(O)c(O)c(C(=O)NC5COC(=O)C(NC(=O)c6cc(C7OC(CO)C(O)C(O)C7O)cc(O)c6O)COC(=O)C(NC(=O)c6cccc(O)c6O)COC5=O)c4)nn3)c3ccc(O)cc3)C(=O)N2C1C(=O)O (stereo not shown) [MGE-Amx] | attenuated by Ent, MGE, or DGE | unaffected; also recorded: no effect; also recorded: not attenuated | micromolar concentrations | enhanced antibacterial activity relative to unmodified Amx | greater antibacterial activity against the uropathogenic E. coli compared to non-pathogenic E. coli | no effect | specifically inhibited the growth of the uropathogenic E. coli | attenuated by Ent, MGE, or DGE
CC1(C)SC2C(NC(=O)C(NC(=O)CCCc3cn(CCOCCOCCOCCNC(=O)c4cc(O)c(O)c(C(=O)NC5COC(=O)C(NC(=O)c6cc(C7OC(CO)C(O)C(O)C7O)cc(O)c6O)COC(=O)C(NC(=O)c6cc(C7OC(CO)C(O)C(O)C7O)cc(O)c6O)COC5=O)c4)nn3)c3ccc(O)cc3)C(=O)N2C1C(=O)O (stereo not shown) [DGE-Amx] | attenuated by Ent, MGE, or DGE | unaffected; also recorded: no effect; also recorded: not attenuated | micromolar concentrations | enhanced antibacterial activity relative to unmodified Amx | greater antibacterial activity against the uropathogenic E. coli compared to non-pathogenic E. coli | no effect | specifically inhibited the growth of the uropathogenic E. coli | attenuated by Ent, MGE, or DGE
